“And” between values parts separate entries of the source, which are not always exact repeats. Equal entries are not always repeated.
System: lipid droplet (LD) proteins from mouse white adipose tissue (WAT)
Test: Stoichiometry of LD protein phosphorylation by isotope tagging and enzymatic (BIAP) dephosphorylation after CL316,243 injection
Type: in vivo
Protocol: Purification of lipid droplets (LD) from mouse white adipose tissue (WAT). All animals were maintained in the Canadian Council on Animal Care (CCAC)-accredited animal facilities of the CHU Ste-Justine Research Center. Two month-old (˜25-29 g BW) male C57BU6J mice, were purchased from Charles River Canada (St. Constant, PQ, Canada), and housed for an additional month at 25° C. in an animal facility with 12:12 h light-dark cycles. During this time, animals were fed ad libitum with 5K chow (˜18% protein, ˜6% fat, ˜5% fiber). […] The homogenate was filtered through a nylon mesh and centrifuged at 17 g for 2 min. Pellet and infranatant were removed and the floating lipid droplets resuspended in 2 ml of the homogenization buffer and centrifuged as above. After the second wash with 50 mM TRIS, pH 7.4, containing 1 M NaCl (Fisher), the LD were snap-frozen and kept at −80° C. until further use.
Extraction of LD proteins and preparation of peptide digests. Purified LD preparations (average wet weight 250 mg) were resuspended in 1 ml of ice-cold acetone, sonicated for 25 sec at 80 W, incubated for 16 h at −20° C. and centrifuged for 10 min at 13,000 g. The supernatants were discharged and pellets were re-extracted twice with ice-cold acetone (1 h each time). After removal of residual acetone under a stream of nitrogen, the protein pellets were re-suspended in 300 μl of a 0.1% sodium 3-[(2-methyl-2-undecyl-1,3-dioxolan-4-yl)methoxyl]-1-propanesulfonate (RapiGest™ SF) in 50 mM NH4HCO3, pH 7.8, containing 5 mM DTT, then sonicated for 10-25 sec and incubated in a boiling bath for 5 min. After 5-min centrifugation at 13,000 g, supernatants were treated for 30 min with IAA in the dark (final concentration 15 mM), and digested overnight with trypsin (Promega, sequencing grade; trypsin to protein ratio 1:50). After digestion, samples were supplemented with TFA (final concentration 0.5%), incubated at 37° C. for 1 h and centrifuged at 13,000 g for 10-min to remove RapiGest™ SF.
Labeling and dephosphorylation of LD peptides. Peptide digests (˜200 μg of protein) were de-salted by the reverse phase chromatography on macro-C18 spin columns (Harvard apparatus) eluted with 70% acetonitrile in water, dried in a SpeedVac™ Concentrator (Savant) and labeled with heavy or light SIMPL (Stable Isotope-containing Multiplex Peptide Labels) isotope tags as described (Fedjaev et al., 2007, supra). After adjusting pH to 8.0 with 500 mM NH4HCO3, samples were supplemented with 3 units of bovine intestinal alkaline phosphatase (BIAP, Sigma, P-5521) and incubated for 3 h at 37° C. BIAP reaction was terminated by addition of concentrated TCA (Sigma) to a final concentration 10%, followed by 1 h incubation on ice and 30-min centrifugation at 13,000 g. Samples containing dephosphorylated peptides were then mixed 1:1 with untreated samples, extracted twice with ethylacetate (Sigma) to remove the excess of unreacted SIMPL labels and analyzed by 2D-LC-MS/MS as described below.
HPLC of peptides on weak anion exchange (WAX) column. Offline WAX HPLC was performed on an Agilent™ 1100 Series liquid chromatography system. Peptides were loaded on C18 (Jupiter™ 4 μm Proteo 90 Å 50×1 mm, Phenomenex) column in 10 mM ammonium acetate containing 10% ACN, and eluted with step gradient of 70% of ACN directly on the WAX (PolySulfoethyl A […] 5 μm 300 Å) column. The column was washed with 10 mM ammonium acetate buffer containing 10% ACN for 10 min and peptides were eluted with 0-100% gradient of 2 M ammonium formate, 10% ACN. […] fractions of 50 μl were collected. Collected fractions were immediately acidified with FA (final concentration 0.2%) and analyzed by LC-MS/MS.
μLC-MS/MS analysis of LD peptides. Peptides were analyzed using a LC-MS/MS instrument consisting of an Agilent™ 1100 Series nanoflow liquid chromatography system and LC/MSD-Trap-SL™ ion trap mass spectrometer (Agilent Technologies, Santa Clara, Calif., USA). […]

C[C@H](Cc1ccc2c(c1)OC(C(=O)[O-])(C(=O)[O-])O2)NC[C@H](O)c1cccc(Cl)c1.[Na+].[Na+] [CL316,243, disodium 5-[(2R)-2-[[(2R)-2-(3-Chlorophenyl)-2-hydroxyethyl]amino]propyl]-1,3-benzodioxole-2,2-dicarboxylate]
Mean isotope ratio Treated, peptide KLLVSSEDYGR (Alpha II spectrin, LD from WAT, 1 mg/kg i.p., 15 min): 3.47
Ratio Treated, peptide SSEEIESAFR (Alpha-II spectrin, z 2, m/z 668.3, LD from WAT of treated mice): 0.64(2)
Ratio Treated, peptide DLTNVQNLQK (Alpha-II spectrin, z 2, m/z 674.3, LD from WAT of treated mice): 0.98(1)
Ratio Treated, peptide SQLLGSAHEVQR (Alpha-II spectrin, z 2, m/z 750.4, LD from WAT of treated mice): 1.05(4)
Ratio Treated, peptide DTEQVDNWMSK (Alpha-II spectrin, z 2, m/z 764.7, LD from WAT of treated mice): 1.03(1)
Ratio Treated, peptide TKQDEVNAAWQR (Alpha-II spectrin, z 2, m/z 813.4, LD from WAT of treated mice): 0.84(1)
Ratio Treated, peptide EANELQQWITEK (Alpha-II spectrin, z 2, m/z 832.4, LD from WAT of treated mice): 1.1(3)
Ratio Treated, peptide MQHNLEQQIQAR (Alpha-II spectrin, z 2, m/z 835.9, LD from WAT of treated mice): 0.94(3)
Ratio Treated, peptide HQAFEAELSANQSR (Alpha-II spectrin, z 2, m/z 881.9, LD from WAT of treated mice): 1.24(2)
Ratio Treated, peptide LIQEQHPEEELIK (Alpha-II spectrin, z 2, m/z 891.5, LD from WAT of treated mice): 1.09(4)
Ratio Treated, peptide HQAFEAELHANADR (Alpha-II spectrin, z 2, m/z 892.5, LD from WAT of treated mice): 0.84(3)
Ratio Treated, peptide HQLLEADISAHEDR (Alpha-II spectrin, z 2, m/z 908.1, LD from WAT of treated mice): 1.04(2)
Ratio Treated, peptide GNAMVEEGHFAAEDVK (Alpha-II spectrin, z 2, m/z 940, LD from WAT of treated mice): 1.1(2)
Ratio Treated, peptide AQLADSFHLQQFFR (Alpha-II spectrin, z 2, m/z 945, LD from WAT of treated mice): 1.04(1)
Ratio Treated, peptide LSDDNTIGQEEIQQR (Alpha-II spectrin, z 2, m/z 961.3, LD from WAT of treated mice): 1.25(1)
Ratio Treated, peptide DLAALGDKVNSLGETAQR (Alpha-II spectrin, z 2, m/z 1020, LD from WAT of treated mice): 1.29(1)
Ratio Treated, peptide SSLSSAQADFNQLAELDR (Alpha-II spectrin, z 2, m/z 1064, LD from WAT of treated mice): 0.99(3)
Ratio Treated, peptide SADESGQALLAASHYASDEVR (Alpha-II spectrin, z 2, m/z 1177, LD from WAT of treated mice): 1.14(3)
Ratio Treated, peptide NQALNTDNYGHDLASVQALQR (Alpha-II spectrin, z 2, m/z 1253, LD from WAT of treated mice): 0.91(3)
Ratio Treated, peptide HQAFEAELHANADR (Alpha-II spectrin, z 3, m/z 597.6, LD from WAT of treated mice): 0.81(1)
Ratio Treated, peptide SADESGQALLAASHYASDEVR (Alpha-II spectrin, z 3, m/z 785, LD from WAT of treated mice): 1.1(3)
Mean isotope ratio Treated, peptide THVDSLR (Apolipoprotein A-I, BIAP-treated/untreated, LD from WAT, 1 mg/kg i.p., 15 min): −1.12
Ratio Treated, peptide (K)VQPYLDEFQK(K) (Apolipoprotein A-I, z 2, m/z 721.2, LD from WAT of treated mice): 0.97(2)
Ratio Treated, peptide (R)TQLAPHSEQMR(E) (Apolipoprotein A-I, z 2, m/z 736.9, LD from WAT of treated mice): 0.99(1)
Ratio Treated, peptide (K)SNPTLNEYHTR(A) (Apolipoprotein A-I, z 2, m/z 753.9, LD from WAT of treated mice): 1(4)
share of HSL peptide SVSEAALAQPEGLLGTDTLKK phosphorylated (LD of stimulated adipocytes): ~80%
Mean isotope ratio Treated, peptide SVSEAALAQPEGLLGTDTLK (Lipase, hormone sensitive, LD from WAT, 1 mg/kg i.p., 15 min): 5.1
Ratio Treated, peptide (R)LILTPPAAPLN(—) (Lipase, hormone sensitive, z 2, m/z 647.8, LD from WAT of treated mice): 0.78(1)
Ratio Treated, peptide (R)AAFPEGFHPR(R) (Lipase, hormone sensitive, z 2, m/z 652.3, LD from WAT of treated mice): 1.14(2)
Ratio Treated, peptide (R)QATEFCVQR(I) (Lipase, hormone sensitive, z 2, m/z 657.2, LD from WAT of treated mice): 1.01(3)
Ratio Treated, peptide (K)HCDLLGSTGER(I) (Lipase, hormone sensitive, z 2, m/z 710.3, LD from WAT of treated mice): 1(4)
Ratio Treated, peptide (K)CVSAYSGTEAEDHFDSDQK(A) (Lipase, hormone sensitive, z 2, m/z 1164, LD from WAT of treated mice): 1.08(1)
Ratio Treated, peptide (K)CVSAYSGTEAEDHFDSDQK(A) (Lipase, hormone sensitive, z 3, m/z 774.6, LD from WAT of treated mice): 0.92(1)
Mean isotope ratio Treated, peptide FVEGLPINDFSR(E) (Malate dehydrogenase, cytoplasmic, LD from WAT, 1 mg/kg i.p., 15 min): 3.08
Ratio Treated, peptide (K)GEFITTVQQR(G) (Malate dehydrogenase, cytoplasmic, z 2, m/z 677.3, LD from WAT of treated mice): 1.18(2)
Mean isotope ratio Treated, peptide GLSAPSCPNGLDDK (Perilipin, LD from WAT, 1 mg/kg i.p., 15 min): 1.4
Mean isotope ratio Treated, peptide LSLMEPESEFRDIDNPSAEAER (Perilipin, LD from WAT, 1 mg/kg i.p., 15 min, 1 mg/kg): 1.6 and 1.63
Ratio Treated, peptide GLDHLEEK (Perilipin, z 2, m/z 558.3, LD from WAT of treated mice): 1.05(4)
Ratio Treated, peptide EVTALPNPR (Perilipin, z 2, m/z 587.2, LD from WAT of treated mice): 1.1(4)
Ratio Treated, peptide ETAEYAANTR (Perilipin, z 2, m/z 650.7, LD from WAT of treated mice): 0.71(1)
Ratio Treated, peptide IPALQYPPEK (Perilipin, z 2, m/z 665.5, LD from WAT of treated mice): 1.01(4)
Ratio Treated, peptide EAHPLVASVCNAYEK (Perilipin, z 2, m/z 932, LD from WAT of treated mice): 1.06(4)
Ratio Treated, peptide VLQLPWSGTCECFQK (Perilipin, z 2, m/z 1020, LD from WAT of treated mice): 0.98(4)
Ratio Treated, peptide GVQGASNLAAWSMEPVVR (Perilipin, z 2, m/z 1024, LD from WAT of treated mice): 1(2)
Ratio Treated, peptide GVTDNVVDTVVHYVPLPR (Perilipin, z 2, m/z 1078, LD from WAT of treated mice): 0.93(3)
Ratio Treated, peptide GPTLLDGDLPEQENVLQR (Perilipin, z 2, m/z 1085, LD from WAT of treated mice): 1.05(4)
Ratio Treated, peptide VLQLPWSGTCECFQK (Perilipin, z 3, m/z 680.8, LD from WAT of treated mice): 1.17(2)
Ratio Treated, peptide GVQGASNLAAWSMEPVVR (Perilipin, z 3, m/z 683, LD from WAT of treated mice): 1(2)
Ratio Treated, peptide VVEFLLPPDKESAPSSGR (Perilipin, z 3, m/z 701.8, LD from WAT of treated mice): 1.11(4)
Ratio Treated, peptide GVTDNVVDTVVHYVPLPR (Perilipin, z 3, m/z 719.3, LD from WAT of treated mice): 1(3)
Ratio Treated, peptide GPTLLDGDLPEQENVLQR (Perilipin, z 3, m/z 723.9, LD from WAT of treated mice): 1.01(4)
Mean isotope ratio Treated, peptide SHDTTSNTLTQLLAK (Protein kinase C delta binding protein, LD from WAT, 1 mg/kg i.p., 15 min): 1.11
Ratio Treated, peptide (R)LEANHGLLVAR(G) (Protein kinase C delta binding protein, z 2, m/z 684.4, LD from WAT of treated mice): 0.94(2)
Ratio Treated, peptide (K)EDPEKPVLQIESAA(—) (Protein kinase C delta binding protein, z 2, m/z 854.9, LD from WAT of treated mice): 0.74(1)
